Patent publication US8637470B2, “Small humanin-like peptides” (The Regents of the University of California, priority 2008, dated 2014)
“Also recorded” adds a separate entry of the source.

How the values were obtained:
[1] = test system: 22RV1 human prostate cancer cells; assay: Apoptosis ELISA (fragmentation of histone-associated DNA) in 22RV1 cells; assay type: cell-based; settings: for Protective effect of SHLP on apoptosis after stattic pre-treatment: 22RV1, 20 μM stattic (STAT3 inhibitor), 100 nM peptide; for Effect of SHLP on apoptosis after PD98059 pre-treatment: 22RV1, 25 μM PD98059 (ERK1/2 inhibitor); for Apoptosis (fragmentation of histone-associated DNA): 22RV1, serum starved 24 h, then 24 h with 100 μM peptide
Procedure: SHLPs are anti-apoptotic in 22RV1 prostate cancer cells and NIT-1 β-cells. […] Mouse NIT-1 insulinoma β-cells and 22RV1 human prostate cancer cells were serum starved for 24 h, followed by 24 h incubation with 100 nM scrambled control peptide, HN or SHLPs. Apoptosis was assessed and quantified by ELISA for fragmentation of histone-associated DNA.
ERK activation is necessary for SHLP-induced inhibition of apoptosis in NIT-1 and 22RV1 cells. To determine the significance of ERK activation for apoptosis inhibition by SHLPs 2 and 3, PD98059 (PD), a specific chemical inhibitor of ERK1/2, was utilized. 22RV1 and NIT-1 cells were serum starved for 24 h in the presence or absence of 25 μM PD or 1 μM wortmannin (PI3-kinase inhibitor; negative control), followed by 24 h incubation with […] scrambled control peptide, SHLP2 or SHLP3. Apoptosis was then assessed by ELISA for fragmentation of histone-associated DNA.
STAT3 Activation is also necessary for SHLP-induced cell survival in 22RV1 cells. Since SHLPs 2 and 3 both stimulate STAT3 phosphorylation in addition to ERK activation, the hypothesis that STAT3 activation occurs downstream of ERK1/2 was tested using a specific chemical inhibitor against STAT3, stattic. 22RV1 cells were incubated for 24 h in SF media in the presence or absence of 20 μM stattic followed by 24 h incubation with 100 nM scrambled control peptide, SHLP2 or SHLP3. Apoptosis was assessed by ELISA for fragmentation of histone-associated DNA. […]

[2] = test system: Mouse NIT-1 insulinoma β-cells; assay: Cell proliferation (cell number by MTT/MTS cleavage) in NIT-1 cells; assay type: cell-based; settings: NIT-1, 100 nM peptide, 72 h
Procedure: SHLPs exert distinct effects on cell proliferation. Whether SHLPs have the capacity to influence cell proliferation, in addition to their intrinsic effects on apoptosis induction, was also investigated. Mouse NIT-1 insulinoma β-cells and 22RV1 human prostate cancer cells were serum starved for 24 h, followed by 72 h incubation with 100 nM scrambled control peptide, HN or SHLPs. Cell number, as a measure of cell proliferation, was assessed by cleavage of MTT substrate.

[3] = test system: murine 3T3-L1 fibroblasts; assay: 3T3-L1 adipocyte differentiation (oil red-O staining); assay type: cell-based; settings: 100 nM peptide with 10 nM insulin, 7 days
Procedure: SHLPs 2 and 3 Stimulate Adipocyte Differentiation of 3T3-L1 Cells in vitro. […] We next assessed the ability of SHLP2, 3 and 6 to modulate the differentiation of 3T3-L1 adipocytes. Differentiation was induced in murine 3T3-L1 fibroblasts by incubation in 1 μM dexamethasone, 100 nM insulin, and 500 μM lisobutylmethyxanthine for 2 days, followed by incubation with 10 nM insulin in the presence of 100 nM scrambled peptide (control), SHLP2, SHLP3 or SHLP6 for 7 days. Differentiation was assessed by oil red-0 staining as a measure of oil droplet formation.

ERK [4] = assay: ERK activation in 22RV1 cells (immunoblotting, ELISA); assay type: cell-based, human; settings: 22RV1, 100 nM; for ERK activation profile (immunoblotting): 15 min to 24 h
Procedure: Characterization of the intracellular signaling pathways activated by SHLPs. To determine a mechanism for the growth and apoptosis effects of SHLPs, SHLPs were tested for the ability to modulate activation of intracellular signaling pathways. 22RV1 cells in SF media were treated with 100 nM SHLP 1-5 and whole cell extracts were harvested after 15 min, 30 min, 2 h, 4 h, 8 h and 24 h. Proteins were separated by SDS-PAGE and analyzed by immunoblotting.
To test the hypothesis that SHLPs may act in concert to regulate intracellular signaling, 22RV1 cells were co-treated with SHLPs 2 and 3, and ERK activation was assessed.
(§1) Since HN causes activation of STAT3, SHLPs 2 and 3 were also tested for effects on STAT3. […] To more accurately quantify the ERK phosphorylation caused by SHLPs 2 and 3, we repeated the experiment as described above but used a commercially available ERK ELISA to assess ERK phosphorylation. Optimal ERK activation by SHLP2 was 9-fold after 24 h, whilst optimal activation by SHLP3 was 12-fold after 2 h (FIG. 5).

STAT3 = STAT3 activation in 22RV1 cells (immunoblotting); assay type: cell-based, human; settings: 22RV1, 100 nM
Procedure: as §1

ERK [5] = assay: ERK phosphorylation in NIT-1 cells (immunoblotting, ELISA); assay type: cell-based, mouse; settings: NIT-1, 100 nM
Procedure: In addition to 22RV1, the effects of SHLPs on ERK and STAT3 phosphorylation were also studied in NIT-1 pancreatic β-cells. […] Indeed, the activation profile caused by SHLP3 in NIT-1 is remarkably similar to that stimulated by SHLP2 in 22RV1. When ERK activation was quantified by ELISA, a 6-fold and 9-fold activation was observed after 2 and 24 h, respectively, by SHLP2.

[6] = test system: Mouse primary cortical neurons; assay: Protection of primary cortical neurons from Aβ-induced cell death (Calcein-AM); assay type: cell-based; settings: 25 μM Aβ1-43, 100 nM peptide, 72 h
Procedure: SHLPs protect neurons from Aβ-induced apoptosis. When it was first discovered, HN was described as a potent neural survival factor with clinical implications as a therapeutic agent against neurodegenerative diseases such as Alzheimer's Disease. Since many of the SHLPs appear to be functionally related to HN, SHLPs were tested as potential neuroprotective factors. Mouse primary cortical neurons were incubated with 25 μM Aβ1-43 in the presence or absence of 100 nM SHLP2 or 3, HNG (positive control) or 1 nM colivelin (positive control). After 72 h, neuronal viability was assessed by Calcein-AM staining followed by fluorescence microscopy (FIG. 13).

S. cerevisiae = assay: Yeast heat shock survival; assay type: cell-based; settings: 10 μM peptide, 90° heat shock
Procedure: SHLPs enhance stress resistance in yeast. The ability of SHLPs to enhance stress resistance in yeast was tested. The ability of yeast to survive heat shock after being treated with different peptides is a commonly used method to test the ability of peptides to enhance yeast survival.

| Sequence | Protective effect of SHLP on apoptosis after stattic pre-treatment [1] | Effect of SHLP on apoptosis after PD98059 pre-treatment [1] | Apoptosis (fragmentation of histone-associated DNA) [1] | Cell number as a measure of cell proliferation [2] | Adipocyte differentiation (oil red-O staining) [3] | Time to ERK activation (ERK [4]) [min] | ERK activation profile (immunoblotting) (ERK [4]) | Optimal ERK activation (ELISA) (ERK [4]; after 2 h) [fold] | STAT3 activation (immunoblotting) (STAT3) | ERK phosphorylation profile (immunoblotting) (ERK [5]) | ERK activation (ELISA) (ERK [5]; after 2 h) | ERK activation (ELISA) (ERK [5]; after 24 h) [fold] | Neuronal viability against Aβ-induced cell death [6] | Yeast survival of heat shock (S. cerevisiae) | SHLP-induced cell survival after wortmannin pre-treatment ([1]; 22RV1, 1 μM wortmannin (PI3-kinase inhibitor)) | Optimal ERK activation (ELISA) (ERK [4]; after 24 h) [fold] |
| --- | --- | --- | --- | --- | --- | --- | --- | --- | --- | --- | --- | --- | --- | --- | --- | --- |
| MLGYNFSSFPCGTISIAPGFNFYRLYFIWVNGLAKVVW [SHLP3, small humanin-like peptide, mtDNA 1707-1821] | abrogated the protective effects | abrogated | significantly inhibited | much greater effect | strikingly induced adipocyte differentiation; also recorded: stimulate 3T3-L1 adipocyte differentiation | ≤ 2 | activated ERK rapidly | 12 | significantly enhanced STAT3 activation | more delayed response | no detectable increase | 15 | protect the neurons from the cell death; also recorded: function as neuro-protective factors | allowed the yeast to withstand 90° heat shock; also recorded: enhance yeast survival against heat shock |  |  |
| MGVKFFTLSTRFFPSVQRAVPLWTNS [SHLP2, small humanin-like peptide, mtDNA 2092-2170] | abrogated the protective effects | abrogated | significantly inhibited | much greater effect | strikingly induced adipocyte differentiation; also recorded: stimulate 3T3-L1 adipocyte differentiation |  | delayed but sustained activation after 8 h |  | significantly enhanced STAT3 activation | detected within 30 min | 6 fold | 9 | protect the neurons from the cell death; also recorded: function as neuro-protective factors | allowed the yeast to withstand 90° heat shock; also recorded: enhance yeast survival against heat shock | inhibited SHLP2-induced cell survival | 9 |
